# Experimental data reported in the supplement of paper PMC10307832.
# Experiments:
# Assay in all cases: relative viability (nuclei count vs DMSO), 5 days (fraction); higher = more cells survive
# Afatinib + Luminespib = compound: CN(C)C/C=C/C(=O)Nc1cc2c(Nc3ccc(F)c(Cl)c3)ncnc2cc1O[C@H]1CCOC1 [Afatinib] + CCNC(=O)c1noc(-c2cc(C(C)C)c(O)cc2O)c1-c1ccc(CN2CCOCC2)cc1 [Luminespib] (partner 0.01 µM)
# Summary of the method: (§1)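 For relative viability, nuclei counts in treated wells were divided by those in vehicle wells. Lung cancer cell lines had been pin-tool dosed in 1536-well plates the day after seeding and cultured for 5 days, then fixed and stained in one step (final 0.05% Triton X-100, 1% formaldehyde, 1 ug/ml Hoechst) and imaged at 4×. Doses were one drug alone or a fixed anchor-drug dose plus five library-drug doses (not always all listed) in √10 steps, and values are duplicate-plate medians.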
# Afatinib + OSI-027 = compound: CN(C)C/C=C/C(=O)Nc1cc2c(Nc3ccc(F)c(Cl)c3)ncnc2cc1O[C@H]1CCOC1 [Afatinib] + COc1cccc2cc(-c3nc([C@H]4CC[C@H](C(=O)O)CC4)n4ncnc(N)c34)[nH]c12 [OSI-027] (partner 0.5 µM)
# Summary of the method: as §1
# Afatinib + Pictilisib = compound: CN(C)C/C=C/C(=O)Nc1cc2c(Nc3ccc(F)c(Cl)c3)ncnc2cc1O[C@H]1CCOC1 [Afatinib] + CS(=O)(=O)N1CCN(Cc2cc3nc(-c4cccc5[nH]ncc45)nc(N4CCOCC4)c3s2)CC1 [Pictilisib] (partner 1 µM)
# Summary of the method: as §1
# Afatinib + Palbociclib = compound: CN(C)C/C=C/C(=O)Nc1cc2c(Nc3ccc(F)c(Cl)c3)ncnc2cc1O[C@H]1CCOC1 [Afatinib] + CC(=O)c1c(C)c2cnc(Nc3ccc(N4CCNCC4)cn3)nc2n(C2CCCC2)c1=O [Palbociclib] (partner 0.5 µM)
# Summary of the method: as §1
Cell Line,relative viability (Afatinib + Luminespib; first compound 0.005 µM),relative viability (Afatinib + Luminespib; first compound 0.01581 µM),relative viability (Afatinib + Luminespib; first compound 0.05 µM),relative viability (Afatinib + Luminespib; first compound 0.1581 µM),relative viability (Afatinib + Luminespib; first compound 0.5 µM),relative viability (Afatinib + OSI-027; first compound 0.005 µM),relative viability (Afatinib + OSI-027; first compound 0.01581 µM),relative viability (Afatinib + OSI-027; first compound 0.05 µM),relative viability (Afatinib + OSI-027; first compound 0.1581 µM),relative viability (Afatinib + OSI-027; first compound 0.5 µM),relative viability (Afatinib + Pictilisib; first compound 0.005 µM),relative viability (Afatinib + Pictilisib; first compound 0.01581 µM),relative viability (Afatinib + Pictilisib; first compound 0.05 µM),relative viability (Afatinib + Pictilisib; first compound 0.1581 µM),relative viability (Afatinib + Pictilisib; first compound 0.5 µM),relative viability (Afatinib + Palbociclib; first compound 0.005 µM),relative viability (Afatinib + Palbociclib; first compound 0.01581 µM),relative viability (Afatinib + Palbociclib; first compound 0.05 µM),relative viability (Afatinib + Palbociclib; first compound 0.1581 µM),relative viability (Afatinib + Palbociclib; first compound 0.5 µM)
201T,1.01,1.02,1.03,0.975,1.03,0.7,0.642,0.722,0.62,0.653,0.682,0.658,0.662,0.659,0.698,0.336,0.346,0.354,0.358,0.339
NCI-H1915,0.807,0.848,0.772,0.743,0.596,0.742,0.613,0.602,0.611,0.469,1.05,0.993,0.951,0.912,0.855,0.564,0.539,0.526,0.506,0.491
HCC-366,–,–,–,–,–,0.947,0.965,0.969,0.824,0.788,0.143,0.123,0.224,0.134,0.191,0.469,0.361,0.443,0.37,0.456
EBC-1,–,–,–,–,–,–,–,–,–,–,0.391,0.386,0.465,0.358,0.372,–,–,–,–,–
NCI-H1648,–,–,–,–,–,0.253,0.266,0.298,0.219,0.27,–,–,–,–,–,0.248,0.304,0.269,0.344,0.263
SW 900,0.182,0.198,–,0.187,0.173,0.668,0.395,0.605,0.639,0.347,–,–,–,–,–,0.464,0.354,0.438,0.43,0.49
NCI-H596,1.01,1,0.894,0.778,0.984,0.728,0.701,0.746,0.613,0.651,0.35,0.394,0.4,0.384,0.415,–,–,–,–,–
NCI-H1563,0.489,0.558,0.552,0.501,0.515,0.729,0.739,0.737,0.709,0.746,0.6,0.644,0.683,0.637,0.657,–,–,–,–,–
NCI-H1299,–,–,–,–,–,–,–,–,–,–,0.84,0.828,0.927,0.647,0.68,–,–,–,–,–
NCI-H522,1.25,1.19,0.978,0.923,1,0.723,0.594,0.631,0.544,0.557,–,–,–,–,–,1,1.05,1.15,0.881,0.675
A549,–,–,–,–,–,–,–,–,–,–,0.499,0.416,0.478,0.389,0.442,–,–,–,–,–
IA-LM,–,–,–,–,–,–,–,–,–,–,0.251,0.221,0.227,0.198,0.212,–,–,–,–,–
Calu-6,–,–,–,–,–,–,–,–,–,–,0.999,0.941,1.01,0.964,0.989,–,–,–,–,–
